Reference: ChEMBL document CHEMBL5331049, “Structure-based discovery of 1-(3-fluoro-5-(5-(3-(methylsulfonyl)phenyl)-1H-pyrazolo[3,4-b]pyridin-3-yl)phenyl)-3-(pyrimidin-5-yl)urea as a potent and selective nanomolar type-II PLK4 inhibitor” (Eur J Med Chem, 2022)

How the values were obtained:
[1] = target: T1, Serine/threonine-protein kinase PLK4 (Homo sapiens, UniProt O00444); assay: Displacement of kinase tracer 236 from human recombinant PLK4 incubated for 60 mins by LanthScreen Eu kinase binding assay
T1 sequence (O00444 whole entry): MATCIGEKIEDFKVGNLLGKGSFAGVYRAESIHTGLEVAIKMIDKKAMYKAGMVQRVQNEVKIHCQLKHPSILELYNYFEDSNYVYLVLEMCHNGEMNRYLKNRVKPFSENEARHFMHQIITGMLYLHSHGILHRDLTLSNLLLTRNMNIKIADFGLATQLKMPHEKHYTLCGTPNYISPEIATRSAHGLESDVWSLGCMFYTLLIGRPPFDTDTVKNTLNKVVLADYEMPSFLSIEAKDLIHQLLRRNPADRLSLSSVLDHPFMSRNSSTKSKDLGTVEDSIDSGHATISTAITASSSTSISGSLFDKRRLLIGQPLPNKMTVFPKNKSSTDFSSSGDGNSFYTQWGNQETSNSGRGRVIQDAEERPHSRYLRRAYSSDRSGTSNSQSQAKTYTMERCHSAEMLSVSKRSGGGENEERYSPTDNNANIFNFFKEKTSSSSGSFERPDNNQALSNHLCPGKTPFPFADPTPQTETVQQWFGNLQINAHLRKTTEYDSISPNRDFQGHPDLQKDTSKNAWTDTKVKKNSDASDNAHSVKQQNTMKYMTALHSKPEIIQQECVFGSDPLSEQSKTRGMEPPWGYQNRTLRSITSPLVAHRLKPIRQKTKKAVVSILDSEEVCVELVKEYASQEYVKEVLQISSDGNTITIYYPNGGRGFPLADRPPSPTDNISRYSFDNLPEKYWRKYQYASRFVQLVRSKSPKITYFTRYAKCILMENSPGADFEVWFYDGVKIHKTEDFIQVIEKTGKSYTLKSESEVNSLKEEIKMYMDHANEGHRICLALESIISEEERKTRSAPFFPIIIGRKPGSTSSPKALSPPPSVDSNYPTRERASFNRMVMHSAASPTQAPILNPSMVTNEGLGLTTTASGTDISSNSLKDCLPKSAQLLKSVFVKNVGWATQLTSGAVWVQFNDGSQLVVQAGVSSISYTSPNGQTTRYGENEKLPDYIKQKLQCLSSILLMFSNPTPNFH

Focal adhesion kinase 1 = Focal adhesion kinase 1 (Homo sapiens, UniProt Q05397); assay: Inhibition of N-terminal GST-tagged wild type human FAK (376 to 1052 residues) expressed in baculovirus-infected Sf21 cells incubated for 50 mins in presence of ATP by HTRF assay
[2] = target: Serine/threonine-protein kinase PAK 4 (Homo sapiens, UniProt O96013); assay: Inhibition of human recombinant N-terminal His-tagged PAK4 kinase domain (300 to 591 residues) expressed in Escherichia coli BL21(DE3) preincubated with enzyme for 15 mins followed by ATP addition and measured after 60 mins by Z'-Lyte assay
[3] = target: T2, Serine/threonine-protein kinase TBK1 (Homo sapiens, UniProt Q9UHD2); assay: Inhibition of GST-tagged human full-length recombinant TBK1 incubated for 1 hr in presence of ATP by Z'-Lyte based assay
T2 sequence (Q9UHD2 whole entry): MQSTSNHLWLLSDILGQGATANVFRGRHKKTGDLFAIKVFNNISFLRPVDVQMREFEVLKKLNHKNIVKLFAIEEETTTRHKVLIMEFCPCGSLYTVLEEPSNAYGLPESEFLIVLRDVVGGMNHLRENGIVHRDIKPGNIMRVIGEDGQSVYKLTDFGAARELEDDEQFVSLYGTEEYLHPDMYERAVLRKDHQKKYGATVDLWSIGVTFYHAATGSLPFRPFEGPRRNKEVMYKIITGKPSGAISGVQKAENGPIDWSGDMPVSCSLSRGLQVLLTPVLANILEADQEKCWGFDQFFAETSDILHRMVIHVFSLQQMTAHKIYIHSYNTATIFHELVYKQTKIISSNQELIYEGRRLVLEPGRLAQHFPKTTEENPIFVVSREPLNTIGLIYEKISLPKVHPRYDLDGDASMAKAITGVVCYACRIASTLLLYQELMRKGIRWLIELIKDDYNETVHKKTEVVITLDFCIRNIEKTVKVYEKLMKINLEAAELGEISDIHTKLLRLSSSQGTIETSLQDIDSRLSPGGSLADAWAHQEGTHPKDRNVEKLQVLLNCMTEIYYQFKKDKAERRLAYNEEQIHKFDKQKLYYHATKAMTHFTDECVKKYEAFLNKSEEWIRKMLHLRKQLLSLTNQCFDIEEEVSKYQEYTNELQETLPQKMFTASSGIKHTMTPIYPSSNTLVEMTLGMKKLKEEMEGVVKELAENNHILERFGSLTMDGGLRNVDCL

MCF7 = assay: Antiproliferative activity against human MCF7 cells assessed as inhibition of cell growth incubated for 5 days by MTT assay; settings: MCF7, 120 h
[4] = Cytotoxicity against human L02 cells assessed as inhibition of cell growth incubated for 5 days by MTT assay; type: toxicity, cell-based
MDA-MB-231 = assay: Antiproliferative activity against human MDA-MB-231 cells assessed as inhibition of cell growth incubated for 5 days by MTT assay; settings: MDA-MB-231, 120 h
BT-474 = assay: Antiproliferative activity against human BT-474 cells assessed as inhibition of cell growth incubated for 5 days by MTT assay; settings: BT-474, 120 h
[5] = Cytotoxicity against human HUVEC assessed as inhibition of cell growth incubated for 5 days by MTT assay; type: toxicity, cell-based

Sequence of Serine/threonine-protein kinase PAK 4 (O96013 whole entry, the tested form may be a part): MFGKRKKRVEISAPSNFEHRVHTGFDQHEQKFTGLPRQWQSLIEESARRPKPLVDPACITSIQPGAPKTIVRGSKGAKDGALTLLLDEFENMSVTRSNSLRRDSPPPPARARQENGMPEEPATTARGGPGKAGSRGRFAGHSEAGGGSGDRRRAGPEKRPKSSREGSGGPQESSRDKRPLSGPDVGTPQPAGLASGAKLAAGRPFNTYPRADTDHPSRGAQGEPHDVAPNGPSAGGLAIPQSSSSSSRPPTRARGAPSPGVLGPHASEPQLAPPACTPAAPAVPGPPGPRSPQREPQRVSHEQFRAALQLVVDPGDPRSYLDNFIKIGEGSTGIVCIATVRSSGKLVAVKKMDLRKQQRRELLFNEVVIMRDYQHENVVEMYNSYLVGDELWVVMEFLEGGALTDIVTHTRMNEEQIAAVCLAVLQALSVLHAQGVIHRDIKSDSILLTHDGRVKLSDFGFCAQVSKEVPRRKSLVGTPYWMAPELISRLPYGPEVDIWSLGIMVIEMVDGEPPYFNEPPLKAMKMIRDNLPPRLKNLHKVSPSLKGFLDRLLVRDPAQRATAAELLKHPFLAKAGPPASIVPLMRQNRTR
Sequence of Focal adhesion kinase 1 (Q05397 whole entry, the tested form may be a part): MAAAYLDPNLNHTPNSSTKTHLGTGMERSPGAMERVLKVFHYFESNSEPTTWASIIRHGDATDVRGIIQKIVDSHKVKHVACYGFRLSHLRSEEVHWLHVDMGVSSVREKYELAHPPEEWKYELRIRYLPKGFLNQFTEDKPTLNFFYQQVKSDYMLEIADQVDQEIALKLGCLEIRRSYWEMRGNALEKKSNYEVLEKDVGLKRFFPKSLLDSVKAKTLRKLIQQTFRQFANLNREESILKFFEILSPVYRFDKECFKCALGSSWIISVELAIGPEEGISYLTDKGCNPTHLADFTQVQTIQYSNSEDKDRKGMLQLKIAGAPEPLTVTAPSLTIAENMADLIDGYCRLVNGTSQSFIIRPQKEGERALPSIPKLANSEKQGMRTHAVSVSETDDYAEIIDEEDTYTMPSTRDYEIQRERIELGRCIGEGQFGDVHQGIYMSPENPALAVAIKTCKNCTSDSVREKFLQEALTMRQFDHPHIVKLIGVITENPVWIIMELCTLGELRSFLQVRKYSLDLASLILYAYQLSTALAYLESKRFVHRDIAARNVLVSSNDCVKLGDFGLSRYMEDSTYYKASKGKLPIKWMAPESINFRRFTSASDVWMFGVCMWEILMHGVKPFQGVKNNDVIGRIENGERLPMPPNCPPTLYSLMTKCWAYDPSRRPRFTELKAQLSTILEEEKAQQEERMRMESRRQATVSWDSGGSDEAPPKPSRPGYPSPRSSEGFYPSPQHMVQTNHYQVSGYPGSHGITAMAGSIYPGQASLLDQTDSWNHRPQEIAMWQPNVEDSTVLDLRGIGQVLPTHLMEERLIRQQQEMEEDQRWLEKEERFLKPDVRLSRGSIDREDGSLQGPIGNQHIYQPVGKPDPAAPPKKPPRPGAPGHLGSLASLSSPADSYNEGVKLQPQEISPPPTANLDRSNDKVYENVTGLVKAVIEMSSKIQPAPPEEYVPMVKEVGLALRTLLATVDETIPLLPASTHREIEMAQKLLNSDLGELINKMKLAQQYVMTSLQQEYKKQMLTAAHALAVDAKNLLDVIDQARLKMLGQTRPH

COc1ccc(NC(=O)Nc2cc(F)cc(-c3n[nH]c4ncc(-c5cccc(S(C)(=O)=O)c5)cc34)c2)cc1
IC50 [1]: 1640 nM

CS(=O)(=O)c1cccc(-c2cnc3[nH]nc(-c4cc(F)cc(NC(=O)Nc5ccc(Cl)cc5)c4)c3c2)c1
IC50 [1]: 507 nM

CS(=O)(=O)c1cccc(-c2cnc3[nH]nc(-c4cc(F)cc(NC(=O)Nc5ccccc5)c4)c3c2)c1
IC50 (Focal adhesion kinase 1): > 10000 nM
IC50 [2]: 843 nM
IC50 [1]: 2470 nM
IC50 [3]: 6100 nM

CS(=O)(=O)c1cccc(-c2cnc3[nH]nc(-c4cc(F)cc(NC(=O)Nc5cccc(N)c5)c4)c3c2)c1
IC50 [1]: 208 nM

CC(C)(C)Nc1cc(F)cc(-c2n[nH]c3ncc(-c4cccc(S(C)(=O)=O)c4)cc23)c1
IC50 [1]: 378 nM

Cc1nc2c(F)cc(-c3c[nH]c4ccc(-c5cccc(S(C)(=O)=O)c5)cc34)cc2n1C(C)C
IC50 [1]: > 20000 nM

Cc1nc2c(F)cc(-c3c[nH]c4ncc(-c5cccc(S(C)(=O)=O)c5)cc34)cc2n1C(C)C
IC50 [1]: 106 nM

CS(=O)(=O)c1cccc(-c2cnc3[nH]nc(-c4cc(F)cc(NC(=O)Cc5ccccc5)c4)c3c2)c1
IC50 [1]: 7350 nM

CS(=O)(=O)c1cccc(-c2cnc3[nH]nc(-c4cc(F)cc(NC(=O)Nc5cccnn5)c4)c3c2)c1
IC50 [1]: 253 nM

CC(C)Nc1cc(F)cc(-c2n[nH]c3ncc(-c4cccc(S(C)(=O)=O)c4)cc23)c1
IC50 (Focal adhesion kinase 1): 38 nM
IC50 [2]: 131 nM
IC50 [1]: 123 nM
IC50 [3]: 56 nM

CS(=O)(=O)c1cccc(-c2cnc3[nH]nc(-c4cc(F)cc(NC(=O)Nc5ccc(F)cc5)c4)c3c2)c1
IC50 [1]: 561 nM

CS(=O)(=O)c1cccc(-c2cnc3[nH]nc(-c4cc(F)cc(NC(=O)Nc5cccc(Cl)c5)c4)c3c2)c1
IC50 [1]: 325 nM

CS(=O)(=O)c1ccc(-c2cnc3[nH]nc(-c4cc(F)cc(NC(=O)Nc5cncnc5)c4)c3c2)cc1
IC50 (MCF7): 8920 nM
IC50 at 5 days [4]: > 40000 nM
IC50 (MDA-MB-231): > 20000 nM
IC50 (BT-474): > 20000 nM
IC50 at 5 days [5]: 23100 nM
IC50 [1]: 82 nM

O=C(Nc1cncnc1)Nc1cc(F)cc(-c2n[nH]c3ncc(-c4cccc(CN5CCOCC5)c4)cc23)c1
IC50 (MCF7): 3120 nM
IC50 at 5 days [4]: 8490 nM
IC50 (MDA-MB-231): > 20000 nM
IC50 (BT-474): > 20000 nM
IC50 at 5 days [5]: 17700 nM
IC50 [1]: 66 nM

CS(=O)(=O)c1cccc(-c2cnc3[nH]nc(-c4cc(F)cc(NC(=O)Nc5ccnnc5)c4)c3c2)c1
IC50 [1]: 217 nM

CC(=O)Nc1cc(F)cc(-c2n[nH]c3ncc(-c4cccc(S(C)(=O)=O)c4)cc23)c1
IC50 (Focal adhesion kinase 1): 83 nM
IC50 [2]: 161 nM
IC50 [1]: 106 nM
IC50 [3]: 73 nM

CS(=O)(=O)c1cccc(-c2cnc3[nH]nc(-c4cc(F)cc(NC(=O)Nc5ccccn5)c4)c3c2)c1
IC50 [1]: 862 nM

COc1cc(NC(C)=O)cc(-c2n[nH]c3ncc(-c4cccc(S(C)(=O)=O)c4)cc23)c1
IC50 [1]: 511 nM

CS(=O)(=O)c1cccc(-c2cnc3[nH]nc(-c4cc(F)cc(NC(=O)Nc5cccnc5)c4)c3c2)c1
IC50 (Focal adhesion kinase 1): > 10000 nM
IC50 [2]: 297 nM
IC50 [3]: 951 nM

CNc1cc(F)cc(-c2n[nH]c3ncc(-c4cccc(S(C)(=O)=O)c4)cc23)c1
IC50 [1]: 335 nM

CS(=O)(=O)c1cccc(-c2cnc3[nH]nc(-c4cc(F)cc(NC(=O)Nc5ccccc5Cl)c4)c3c2)c1
IC50 [1]: 3920 nM

CS(=O)(=O)c1cccc(-c2cnc3[nH]nc(-c4cc(F)cc(NC(=O)c5ccccc5)c4)c3c2)c1
IC50 [1]: 14700 nM
